Laboratory results from article PMC11601558, “SLC6A19 inhibition facilitates urinary neutral amino acid excretion and lowers plasma phenylalanine” (JCI Insight, 2024).
Read-outs that look alike come from different tables or passages of the source.

What was measured:
[1] = JNT-517 plasma pharmacokinetics in healthy volunteers; format: in vivo, human; conditions: for half-life / Tmax: human, plasma, oral; for half-life: read-out: Mean T1/2 (converted); for Tmax: min, read-out: Median Tmax
Description: The plasma pharmacokinetic profile of JNT-517 was measured using a qualified high-performance LC-MS assay. Blood samples for PK analysis were taken before dosing, and 0.5, 1, 1.5, 2, 2.5, 3, 4, 6, 8, 10, 12, 24, 36, […], and 72 hours after dosing in the SAD study. For the MAD study, blood samples for PK analysis were taken before dosing, and 0.5, 1, 1.5, 2, 2.5, 3, 4, 6, 8, 10, 12, and 24 hours after dosing in the case of once-daily dosing or 0.5, 1, 1.5, 2, 2.5, 3, 4, 6, 8.5, 9 9.5, 10, 10.5, 11, 12, 14, 16, and 24 hours after dosing in the case of twice daily dosing. In addition, predose samples were collected throughout days 3–13. The resulting concentration-time data was evaluated using standard noncompartmental analysis methods, and PK parameters were calculated (Cmax, Tmax, T1/2, AUC0-inf, CL/F, Vd/F).
IC50 values for transport inhibition in cells overexpressing SLC6A19 and TMEM27 were calculated using a 4-parameter logistic regression in Collaborative Drug Discovery (CDD). Reported IC50 values are geometric means of 4–6 independent experiments. For postmortem intestinal transport assays, single outliers of quadruplicate replicates were excluded from the calculation if a signal value’s distance to the mean exceeded 35% of the signal average. The IC50 values of individual experiments were calculated with a 3- or 4-parameter logistic regression using GraphPad Prism 9. The reported IC50 value represents the geometric mean of n = 5 experiments from 3 individual donors. Statistical comparison of urinary Phe excretion in Pah^enu2 mice treated with vehicle or JN-170 was conducted using 1-way analysis of variance (ANOVA) with Tukey’s post hoc comparison. Statistical analysis of baseline-adjusted plasma Phe in mice treated with vehicle or JN-170 was determined by 2-way ANOVA with Dunnett’s post hoc comparison. All statistical analyses were performed using GraphPad Prism 9. For clinical studies, group sizes were not determined based on statistical power calculations. Statistical significance of pharmacodynamic results was not assessed. Values are reported as mean (urinary Phe excretion, T1/2, Cl/F), geometric mean (Cmax/D, AUC0-inf/D), or median (Tmax).

healthy volunteers = test: Plasma amino acid levels in healthy volunteers (MAD); format: in vivo, human
Description: The effect of JNT-517 on plasma and urine AA levels was measured using an ultra-performance liquid chromatography mass spectrometry assay following 6-aminoquinolyl-N-hydroxysuccinimidyl carbamate (AQC) derivatization. For the SAD study, plasma samples were collected on day –1 and day 1 predose, as well as 24, 48, and 72 hours after dosing. A first morning void urine sample on Days –1 and 1 predose, as well as 2 pooled urine samples 0–8 hours after and 8–24 hours after dose were also collected following study drug administration. For the MAD study, plasma samples were collected on day –1, 1, 7, and 14 predose, as well as day 14, 24 hours after dosing. A first morning void urine samples on day –1, 1, 7, and 14 as well as 2 pooled urine samples 0–8 hours and 8–24 hours after dose on days 1, 7, and 14 were also collected following JNT-517 or placebo administration. Study participants in SAD and MAD cohorts were dosed in the morning following an overnight fast of at least 8 hours and were provided the following meals in relation to dosing times: breakfast after the morning dose, lunch 4 hours after morning dose, optional snack in the afternoon 8 hours after the morning dose and after the second dose for MAD cohorts dosed BID, dinner approximately 10 hours after the morning dose and at least 2 hours after the second dose for MAD cohorts dosed BID. Predose plasma amino acids were drawn after a minimum of 8 hours fasting overnight and after-dose levels were drawn after > 1.5 hours fasting. Resulting plasma and urine amino acid concentration measurements, as well a total amino acid excretion over a time period were summarized using appropriate descriptive statistics and compared with either predose levels or placebo-dose values. Tryptophan was not included in the amino acid panel due to analytical limitations.

With `NC(=O)N1CCC[C@@H](N(C(=O)NCc2ccc(OC(F)(F)F)cc2F)C2CC2)C1` [JNT-517] the “plasma exposure exceeding the in vitro IC75” value ([1]; MAD 150 mg QD) was “approximately 24 hours”, the “accumulation between days 1 and 14” value ([1]; MAD cohorts, dose levels tested) was “no accumulation was observed” and the “Geomean Cmax/D” value ([1]; SAD 10 mg, %CV 23.6) was 45.9 ng/mL/mg. The “Geomean AUC0-inf/D” value ([1]; SAD 10 mg, %CV 66.0) was 340 ng·h/mL/mg, the “Mean Cl/F” value ([1]; SAD 10 mg, SD 1.75) was 3.36 L/h and the “Geomean Cmax/D” value ([1]; SAD 25 mg, %CV 25.5) was 48.5 ng/mL/mg. For the same molecule, the “Geomean AUC0-inf/D” value ([1]; SAD 25 mg, %CV 59.0) was 402 ng·h/mL/mg, the “Mean Cl/F” value ([1]; SAD 25 mg, SD 1.27) was 2.78 L/h and the “Geomean Cmax/D” value ([1]; SAD 50 mg, %CV 14.8) was 44.6 ng/mL/mg. For the same molecule, the “Geomean AUC0-inf/D” value ([1]; SAD 50 mg, %CV 34.5) was 348 ng·h/mL/mg, the “Mean Cl/F” value ([1]; SAD 50 mg, SD 0.873) was 3.00 L/h and the “Geomean Cmax/D” value ([1]; SAD 100 mg, %CV 13.0) was 35.0 ng/mL/mg. The “Geomean AUC0-inf/D” value ([1]; SAD 100 mg, %CV 42.4) was 239 ng·h/mL/mg, the “Mean Cl/F” value ([1]; SAD 100 mg, SD 2.11) was 4.52 L/h and the “Geomean Cmax/D” value ([1]; SAD 170 mg, %CV 24.9) was 32.9 ng/mL/mg. For the same molecule, the “Geomean AUC0-inf/D” value ([1]; SAD 170 mg, %CV 33.6) was 269 ng·h/mL/mg, the “Mean Cl/F” value ([1]; SAD 170 mg, SD 1.15) was 3.87 L/h and the half-life ([1]; SAD 10 mg, %CV 50.2) was 6.37 h. For the same molecule, the Tmax ([1]; SAD 10 mg, max 0.5, 1.07) was 0.75 h, the half-life ([1]; SAD 25 mg, %CV 50.7) was 7.78 h and the Tmax ([1]; SAD 25 mg, max 0.5, 2.0) was 1 h. The half-life ([1]; SAD 50 mg, %CV 35.4) was 6.17 h, the Tmax ([1]; SAD 50 mg, max 0.5, 2.0) was 0.75 h and the half-life ([1]; SAD 100 mg, %CV 31.9) was 5.89 h. The Tmax ([1]; SAD 100 mg, max 0.5, 1.5) was 1 h, the half-life ([1]; SAD 170 mg, %CV 24.7) was 6.04 h and the Tmax ([1]; SAD 170 mg, max 0.5, 2.0) was 0.75 h. The “exposure above the in vitro IC75” value ([1]; single 50 mg dose) was > 12 h, the “target coverage exceeding the IC75” value ([1]; single 170 mg dose) was “approximately 24 hours” and the “number of subjects with plasma Alanine below lower limit of normal” value (healthy volunteers; MAD 25 mg BID, Post-dose) was 0. For the same molecule, the “number of subjects with plasma Arginine below lower limit of normal” value (healthy volunteers; MAD 25 mg BID, Post-dose) was 0, the “number of subjects with plasma Asparagine below lower limit of normal” value (healthy volunteers; MAD 25 mg BID, Post-dose) was 0 and the “number of subjects with plasma Cystine below lower limit of normal” value (healthy volunteers; MAD 25 mg BID, Post-dose) was 5. The “number of subjects with plasma Glutamate below lower limit of normal” value (healthy volunteers; MAD 25 mg BID, Post-dose) was 0, the “number of subjects with plasma Glutamine below lower limit of normal” value (healthy volunteers; MAD 25 mg BID, Post-dose) was 0 and the “number of subjects with plasma Glycine below lower limit of normal” value (healthy volunteers; MAD 25 mg BID, Post-dose) was 0. For the same molecule, the “number of subjects with plasma Isoleucine below lower limit of normal” value (healthy volunteers; MAD 25 mg BID, Post-dose) was 0, the “number of subjects with plasma Leucine below lower limit of normal” value (healthy volunteers; MAD 25 mg BID, Post-dose) was 0 and the “number of subjects with plasma Lysine below lower limit of normal” value (healthy volunteers; MAD 25 mg BID, Post-dose) was 0. The “number of subjects with plasma Methionine below lower limit of normal” value (healthy volunteers; MAD 25 mg BID, Post-dose) was 0, the “number of subjects with plasma Phenylalanine below lower limit of normal” value (healthy volunteers; MAD 25 mg BID, Post-dose) was 0 and the “number of subjects with plasma Proline below lower limit of normal” value (healthy volunteers; MAD 25 mg BID, Post-dose) was 0. The “number of subjects with plasma Serine below lower limit of normal” value (healthy volunteers; MAD 25 mg BID, Post-dose) was 0, the “number of subjects with plasma Threonine below lower limit of normal” value (healthy volunteers; MAD 25 mg BID, Post-dose) was 0 and the “number of subjects with plasma Tyrosine below lower limit of normal” value (healthy volunteers; MAD 25 mg BID, Post-dose) was 0. For the same molecule, the “number of subjects with plasma Valine below lower limit of normal” value (healthy volunteers; MAD 25 mg BID, Post-dose) was 0, the “number of subjects with plasma Alanine below lower limit of normal” value (healthy volunteers; MAD 75 mg BID, Post-dose) was 0 and the “number of subjects with plasma Arginine below lower limit of normal” value (healthy volunteers; MAD 75 mg BID, Post-dose) was 0. The “number of subjects with plasma Asparagine below lower limit of normal” value (healthy volunteers; MAD 75 mg BID, Post-dose) was 0, the “number of subjects with plasma Cystine below lower limit of normal” value (healthy volunteers; MAD 75 mg BID, Post-dose) was 0 and the “number of subjects with plasma Glutamate below lower limit of normal” value (healthy volunteers; MAD 75 mg BID, Post-dose) was 0. For the same molecule, the “number of subjects with plasma Glutamine below lower limit of normal” value (healthy volunteers; MAD 75 mg BID, Post-dose) was 0, the “number of subjects with plasma Glycine below lower limit of normal” value (healthy volunteers; MAD 75 mg BID, Post-dose) was 0 and the “number of subjects with plasma Isoleucine below lower limit of normal” value (healthy volunteers; MAD 75 mg BID, Post-dose) was 0. The “number of subjects with plasma Leucine below lower limit of normal” value (healthy volunteers; MAD 75 mg BID, Post-dose) was 0, the “number of subjects with plasma Lysine below lower limit of normal” value (healthy volunteers; MAD 75 mg BID, Post-dose) was 0 and the “number of subjects with plasma Methionine below lower limit of normal” value (healthy volunteers; MAD 75 mg BID, Post-dose) was 0. For the same molecule, the “number of subjects with plasma Phenylalanine below lower limit of normal” value (healthy volunteers; MAD 75 mg BID, Post-dose) was 0, the “number of subjects with plasma Proline below lower limit of normal” value (healthy volunteers; MAD 75 mg BID, Post-dose) was 0 and the “number of subjects with plasma Serine below lower limit of normal” value (healthy volunteers; MAD 75 mg BID, Post-dose) was 0. For the same molecule, the “number of subjects with plasma Threonine below lower limit of normal” value (healthy volunteers; MAD 75 mg BID, Post-dose) was 0, the “number of subjects with plasma Tyrosine below lower limit of normal” value (healthy volunteers; MAD 75 mg BID, Post-dose) was 0 and the “number of subjects with plasma Valine below lower limit of normal” value (healthy volunteers; MAD 75 mg BID, Post-dose) was 0. The “number of subjects with plasma Alanine below lower limit of normal” value (healthy volunteers; MAD 150 mg QD, Post-dose) was 0, the “number of subjects with plasma Arginine below lower limit of normal” value (healthy volunteers; MAD 150 mg QD, Post-dose) was 0 and the “number of subjects with plasma Asparagine below lower limit of normal” value (healthy volunteers; MAD 150 mg QD, Post-dose) was 0. For the same molecule, the “number of subjects with plasma Cystine below lower limit of normal” value (healthy volunteers; MAD 150 mg QD, Post-dose) was 5, the “number of subjects with plasma Glutamate below lower limit of normal” value (healthy volunteers; MAD 150 mg QD, Post-dose) was 0 and the “number of subjects with plasma Glutamine below lower limit of normal” value (healthy volunteers; MAD 150 mg QD, Post-dose) was 0. For the same molecule, the “number of subjects with plasma Glycine below lower limit of normal” value (healthy volunteers; MAD 150 mg QD, Post-dose) was 0, the “number of subjects with plasma Isoleucine below lower limit of normal” value (healthy volunteers; MAD 150 mg QD, Post-dose) was 0 and the “number of subjects with plasma Leucine below lower limit of normal” value (healthy volunteers; MAD 150 mg QD, Post-dose) was 0. For the same molecule, the “number of subjects with plasma Lysine below lower limit of normal” value (healthy volunteers; MAD 150 mg QD, Post-dose) was 0, the “number of subjects with plasma Methionine below lower limit of normal” value (healthy volunteers; MAD 150 mg QD, Post-dose) was 0 and the “number of subjects with plasma Phenylalanine below lower limit of normal” value (healthy volunteers; MAD 150 mg QD, Post-dose) was 0. The “number of subjects with plasma Proline below lower limit of normal” value (healthy volunteers; MAD 150 mg QD, Post-dose) was 0, the “number of subjects with plasma Threonine below lower limit of normal” value (healthy volunteers; MAD 150 mg QD, Post-dose) was 0 and the “number of subjects with plasma Valine below lower limit of normal” value (healthy volunteers; MAD 150 mg QD, Post-dose) was 0. The “number of subjects with plasma Serine below lower limit of normal” value (healthy volunteers; MAD 150 mg QD, Post-dose (16.7%)) was 1 and the “number of subjects with plasma Tyrosine below lower limit of normal” value (healthy volunteers; MAD 150 mg QD, Post-dose (33.3%)) was 2.
